Molecular target: T1, BTK (Homo sapiens, UniProt Q06187)
T1 construct: The GM01501.3 cell line endogenously expresses BTK with a HiBiT fusion tag via CRISPR knock-in at its C-terminal region; endogenous in cells; host or cells: GM01501.3 (GM01501 cells engineered by CRISPR knock-in of HiBiT at the BTK locus)
Test: BTK degradation assay using the HiBiT Method (Nano-Glo HiBiT Lytic Assay, GM01501.3 cells)
Assay type: cell-based
Details: HiBiT Degradation on GM01501.3 BTK @ 6 hours
How it was run: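 CRISPR knock-in GM01501.3 cells expressing endogenous BTK with C-terminal HiBiT tag, treated 6 h at 37 °C with compounds, 11-point half-log titration from 10 μM top, duplicates. Remaining BTK quantified by Nano-Glo HiBiT lytic luminescence versus DMSO controls; DC50 reported.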

T1 sequence (Q06187 whole entry, the tested form may be a part): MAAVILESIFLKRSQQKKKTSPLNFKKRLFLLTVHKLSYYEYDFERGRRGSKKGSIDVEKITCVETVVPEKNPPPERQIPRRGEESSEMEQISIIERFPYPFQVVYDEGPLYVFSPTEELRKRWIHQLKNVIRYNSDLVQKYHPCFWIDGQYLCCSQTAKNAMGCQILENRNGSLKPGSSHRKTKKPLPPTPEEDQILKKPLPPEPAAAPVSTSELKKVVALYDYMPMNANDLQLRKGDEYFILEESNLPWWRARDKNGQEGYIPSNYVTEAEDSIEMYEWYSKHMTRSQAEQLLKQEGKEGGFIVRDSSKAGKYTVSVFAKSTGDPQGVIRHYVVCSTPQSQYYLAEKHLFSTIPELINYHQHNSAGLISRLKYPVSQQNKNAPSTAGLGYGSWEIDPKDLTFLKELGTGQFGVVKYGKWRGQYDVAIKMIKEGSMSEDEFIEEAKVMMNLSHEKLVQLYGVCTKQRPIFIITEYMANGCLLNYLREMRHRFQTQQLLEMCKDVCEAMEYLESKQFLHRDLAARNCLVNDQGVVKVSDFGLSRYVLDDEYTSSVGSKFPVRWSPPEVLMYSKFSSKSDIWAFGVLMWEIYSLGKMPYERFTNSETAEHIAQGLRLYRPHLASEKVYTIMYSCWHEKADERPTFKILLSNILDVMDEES

| SMILES | DC50 [µM] |
| --- | --- |
| O=C1CCC(Nc2ccc(C3CCN(Cc4ccc(-c5cc6c(-c7ccc(CNC(=O)c8ccc(C(F)F)cc8)c(F)c7)ncnn6c5)cc4)CC3)cc2)C(=O)N1 (centres unmarked) [Example 101, 4-(difluoromethyl)-N-[[4-[6-[4-[[4-[4-[(2,6-dioxo-3-piperidyl)amino]phenyl]-1-piperidyl]methyl]phenyl]pyrrolo[2,1-f][1,2,4]triazin-4-yl]-2-fluoro-phenyl]methyl]benzamide] | < 0.1 |
| Cc1cc(-c2ncnn3cc(-c4ccc(OCCCCN5CCC(c6ccc(NC7CCC(=O)NC7=O)cc6)CC5)cc4)cc23)ccc1CNC(=O)c1noc(C(C)(C)C)n1 (centres unmarked) [Example 113, -tert-butyl-N-[[4-[6-[4-[4-[4-[4-[(2,6-dioxo-3-piperidyl)amino]phenyl]-1-piperidyl]butoxy]phenyl]pyrrolo[2,1-f][1,2,4]triazin-4-yl]-2-methyl-phenyl]methyl]-1,2,4-oxadiazole-3-carboxamide] | < 0.1 |
| Cc1cc(-c2ncnn3cc(CCN4CCC(c5ccc(OC6CCC(=O)NC6=O)cn5)CC4)cc23)ccc1CNC(=O)c1noc(C(C)(C)C)n1 (centres unmarked) [Example 264, 5-(tert-butyl)-N-(4-(6-(2-(4-(5-((2,6-dioxopiperidin-3-yl)oxy)pyridin-2-yl)piperidin-1-yl)ethyl)pyrrolo[2,1-f][1,2,4]triazin-4-yl)-2-methylbenzyl)-1,2,4-oxadiazole-3-carboxamide] | < 0.1 |
| Cc1cc(-c2ncnn3cc(N4CCN(C(=O)C5CCOC5CNC(=O)c5ccc(OC6CCC(=O)NC6=O)cc5)CC4)cc23)ccc1CNC(=O)c1noc(C(C)(C)C)n1 (centres unmarked) [Example 187, 5-(tert-butyl)-N-(4-(6-(4-(2-((4-((2,6-dioxopiperidin-3-yl)oxy)benzamido)methyl)tetrahydrofuran-3-carbonyl)piperazin-1-yl)pyrrolo[2,1-f][1,2,4]triazin-4-yl)-2-methylbenzyl)-1,2,4-oxadiazole-3-carboxamide] | < 0.1 |
| Cc1cc(-c2ncnn3cc(OC[C@@H](F)CN4CCN(c5ccc(NC6CCC(=O)NC6=O)cn5)CC4)cc23)ccc1CNC(=O)c1noc(C(C)(C)C)n1 (stereo partly drawn) [Example 296, 5-(tert-butyl)-N-(4-(6-((2S)-3-(4-(5-((2,6-dioxopiperidin-3-yl)amino)pyridin-2-yl)piperazin-1-yl)-2-fluoropropoxy)pyrrolo[2,1-f][1,2,4]triazin-4-yl)-2-methylbenzyl)-1,2,4-oxadiazole-3-carboxamide] | < 0.1 |
| Cc1cc(-c2ncnn3cc(OCCCN4CCC(c5ccc6c(N7CCC(=O)NC7=O)nn(C)c6c5)CC4)cc23)ccc1CNC(=O)N1CC(OC(C)(C)C)C1 [Example 293, 3-(tert-butoxy)-N-(4-(6-(3-(4-(3-(2,4-dioxotetrahydropyrimidin-1(2H)-yl)-1-methyl-1H-indazol-6-yl)piperidin-1-yl)propoxy)pyrrolo[2,1-f][1,2,4]triazin-4-yl)-2-methylbenzyl)azetidine-1-carboxamide] | < 0.1 |
| CN(CCOc1ccc(OC2CCC(=O)NC2=O)cc1)Cc1ccc(-c2cc3c(-c4ccc(CNC(=O)c5noc(C(C)(C)C)n5)c(F)c4)ncnn3c2)nc1 (centres unmarked) [Example 229, 5-(tert-butyl)-N-(4-(6-(5-(((2-(4-((2,6-dioxopiperidin-3-yl)oxy)phenoxy)ethyl)(methyl)amino)methyl)pyridin-2-yl)pyrrolo[2,1-f][1,2,4]triazin-4-yl)-2-fluorobenzyl)-1,2,4-oxadiazole-3-carboxamide] | < 0.1 |
| Cc1cc(-c2ncnn3cc(N4CCN(C(=O)CC5CCCCN5C(=O)c5ccc(OC6CCC(=O)NC6=O)cc5)CC4)cc23)ccc1CNC(=O)c1noc(C(C)(C)C)n1 (centres unmarked) [Example 176, 5-(tert-butyl)-N-(4-(6-(4-(2-(1-(4-((2,6-dioxopiperidin-3-yl)oxy)benzoyl)piperidin-2-yl)acetyl)piperazin-1-yl)pyrrolo[2,1-f][1,2,4]triazin-4-yl)-2-methylbenzyl)-1,2,4-oxadiazole-3-carboxamide] | 0.1 to 0.5 |
| O=C1CCC(Nc2ccc(C3CCN(Cc4ccc(-c5cc6c(-c7ccc(CNC(=O)c8ccc(C(F)F)cc8)c(F)c7)ncnn6c5)cc4)CC3)nc2)C(=O)N1 (centres unmarked) [Example 102, 4-(difluoromethyl)-N-[[4-[6-[4-[[4-[5-[(2,6-dioxo-3-piperidyl)amino]-2-pyridyl]-1-piperidyl]methyl]phenyl]pyrrolo[2,1-f][1,2,4]triazin-4-yl]-2-fluoro-phenyl]methyl]benzamide] | < 0.1 |

Further lines, results first:

| DC50 [µM] | SMILES |
| --- | --- |
| 0.1 to 0.5 | Cc1cc(-c2ncnn3cc(C#CCCN4CCC(c5ccc(C6CCC(=O)NC6=O)cc5)CC4)cc23)ccc1CNC(=O)c1noc(C(C)(C)C)n1 (centres unmarked) [Example 291, 5-(tert-butyl)-N-(4-(6-(4-(4-(4-(2,6-dioxopiperidin-3-yl)phenyl)piperidin-1-yl)but-1-yn-1-yl)pyrrolo[2,1-f] [1,2,4]triazin-4-yl)-2-methylbenzyl)-1,2,4-oxadiazole-3-carboxamide] |
| < 0.1 | Cc1cc(-c2ncnn3cc(-c4cnn(CCN5CCC(c6ccc7c(C8CCC(=O)NC8=O)nn(C)c7c6)CC5)c4)cc23)ccc1CNC(=O)c1noc(C(C)(C)C)n1 (centres unmarked) [Example 299, 5-(tert-butyl)-N-(4-(6-(1-(2-(4-(3-(2,6-dioxopiperidin-3-yl)-1-methyl-1H-indazol-6-yl)piperidin-1-yl)ethyl)-1H-pyrazol-4-yl)pyrrolo[2,1-f][1,2,4]triazin-4-yl)-2-methylbenzyl)-1,2,4-oxadiazole-3-carboxamide] |
| 0.1 to 0.5 | CC(C)(C)c1nc(C(=O)NCc2ccc(-c3ncnn4cc(CCN5CCC(c6ccc(C7(C)CCC(=O)NC7=O)cc6)CC5)cc34)cc2F)no1 (centres unmarked) [Example 121, 5-tert-butyl-N-[[2-fluoro-4-[6-[2-[4-[4-(3-methyl-2,6-dioxo-3-piperidyl)phenyl]-1-piperidyl]ethyl]pyrrolo[2,1-f][1,2,4]triazin-4-yl]phenyl]methyl]-1,2,4-oxadiazole-3-carboxamide] |
| < 0.1 | Cc1cc(-c2ncnn3cc(-c4ccc(CN5CCC(c6ccc(N[C@H]7CCC(=O)NC7=O)cc6F)CC5)cc4)cc23)ccc1CNC(=O)c1noc(C(C)(C)C)n1 [Example 25, (S)-5-(tert-butyl)-N-(4-(6-(4-((4-(4-((2,6-dioxopiperidin-3-yl)amino)-2-fluorophenyl)piperidin-1-yl)methyl)phenyl)pyrrolo[2,1-f][1,2,4]triazin-4-yl)-2-methylbenzyl)-1,2,4-oxadiazole-3-carboxamide] |
| < 0.1 | Cc1cc(-c2ncnn3cc(-c4ccc(CN5CCC(c6ccc(NC7CCC(=O)NC7=O)cc6)CC5)cc4)cc23)ccc1CNC(=O)c1cnc(C(C)C)cn1 (centres unmarked) [Example 91, N-[[4-[6-[4-[[4-[4-[(2,6-dioxo-3-piperidyl)amino]phenyl]-1-piperidyl]methyl]phenyl]pyrrolo[2,1-f][1,2,4]triazin-4-yl]-2-methyl-phenyl]methyl]-5-isopropyl-pyrazine-2-carboxamide] |
| < 0.1 | Cc1cc(-c2ncnn3cc(CCN4CCC(c5ccc(NC6CCC(=O)NC6=O)cc5)CC4)cc23)ccc1CNC(=O)c1noc(C(C)(C)C)n1 (centres unmarked) [Example 117, 5-tert-butyl-N-[[4-[6-[2-[4-[4-[(2,6-dioxo-3-piperidyl)amino]phenyl]-1-piperidyl]ethyl]pyrrolo[2,1-f][1,2,4]triazin-4-yl]-2-methyl-phenyl]methyl]-1,2,4-oxadiazole-3-carboxamide] |
| < 0.1 | Cc1ccc(C(=O)NCc2ccc(-c3ncnn4cc(-c5ccc(CN6CCC(c7ccc(NC8CCC(=O)NC8=O)cc7)CC6)cc5)cc34)cc2C)nc1 (centres unmarked) [Example 87, N-[[4-[6-[4-[[4-[4-[(2,6-dioxo-3-piperidyl)amino]phenyl]-1-piperidyl]methyl]phenyl]pyrrolo[2,1-f][1,2,4]triazin-4-yl]-2-methyl-phenyl]methyl]-5-methyl-pyridine-2-carboxamide] |
| < 0.1 | COc1cc(-c2ncnn3cc(-c4ccc(CN5CCC(c6ccc(C7CCC(=O)NC7=O)cc6)CC5)cc4)cc23)ccc1CNC(=O)c1noc(C(C)(C)C)n1 (centres unmarked) [Example 43, 5-tert-butyl-N-[[4-[6-[4-[[4-[4-(2,6-dioxo-3-piperidyl)phenyl]-1-piperidyl]methyl]phenyl]pyrrolo[2,1-f][1,2,4]triazin-4-yl]-2-methoxy-phenyl]methyl]-1,2,4-oxadiazole-3-carboxamide] |
| < 0.1 | Cc1cc(-c2ncnn3cc(-c4ccc(CN5CCC(c6ccc(NC7CCC(=O)NC7=O)cc6)CC5)cc4)cc23)ccc1CNC(=O)CCCC(C)(C)C (centres unmarked) [Example 74, N-[[4-[6-[4-[[4-[4-[(2,6-dioxo-3-piperidyl)amino]phenyl]-1-piperidyl]methyl]phenyl]pyrrolo[2,1-f][1,2,4]triazin-4-yl]-2-methyl-phenyl]methyl]-5,5-dimethyl-hexanamide] |
| < 0.1 | Cc1cc(-c2ncnn3cc(-c4ccc(CN5CCC(c6ccc(NC7CCC(=O)NC7=O)cc6)CC5)cc4)cc23)ccc1CNC(=O)COCC(C)(C)C (centres unmarked) [Example 70, 2-(2,2-dimethylpropoxy)-N-[[4-[6-[4-[[4-[4-[(2,6-dioxo-3-piperidyl)amino]phenyl]-1-piperidyl]methyl]phenyl]pyrrolo[2,1-f][1,2,4]triazin-4-yl]-2-methyl-phenyl]methyl]acetamide] |
| < 0.1 | Cc1cc(-c2ncnn3cc(-c4ccc(CN5CCC(c6ccc(NC7CCC(=O)NC7=O)cc6)CC5)c(Cl)c4)cc23)ccc1CNC(=O)c1noc(C(C)(C)C)n1 (centres unmarked) [Example 15, 5-tert-butyl-N-[[4-[6-[3-chloro-4-[[4-[4-[(2,6-dioxo-3-piperidyl)amino]phenyl]-1-piperidyl]methyl]phenyl]pyrrolo[2,1-f][1,2,4]triazin-4-yl]-2-methyl-phenyl]methyl]-1,2,4-oxadiazole-3-carboxamide] |

From US20240287076A1, “COMPOUNDS FOR TARGETING DEGRADATION OF BRUTON'S TYROSINE KINASE” (BIOGEN MA INC., priority 2021, published 2024)
